Measured values taken from patent US8288410B2, “3-substituted quinolinium and 7H-indolo[2,3-c]quinolinium salts as new antiinfectives” (Florida Agricultural and Mechanical University, priority 2008, dated 2012).

Assays:
[1] = test system: Candida albicans ATTC 90028; assay: Antifungal susceptibility testing, Candida albicans; type: cell-based; conditions: Table 1
Experimental: (§1) Using standard susceptibility tests, the compounds of the invention were determined to be active against MRSA, C. neoformans and several other bacteria, fungi and protozoa. More specifically, the antibacterial and antifungal testing was carried out in the following manner. Cryptococcus neoformans ATCC 90113 and MRSA were obtained from the American Type Culture Collection (Manassas. Va.). Several others including Candida albicans ATTC 90028, Aspergillus fumigatus ATCC 90906 and Mycobacterium intracellulare (M. intracellulare) ATCC 23086 were also procured. Susceptibility testing was performed using a modified version of the National Committee for Clinical Laboratory Standards method. M. intracellulare was tested using a modified method of Franzblau, et al., J. Clin. Microbiol., 1998, 36, 362-366. DMSO solutions of samples were serially diluted in saline, and transferred in duplicate to 96 well microplates. Microbial suspensions were diluted in the broth to afford desired colony forming units/mL according to the 0.5 McFarland Standard [C. Albicans: either Saboraud Dextrose broth (SDB) or RPMI 1640, C. neoformans: SDB, A fumigatus: either YM broth (for MICS) or RPMI-1640+5% Alamar Blue.] After adding microbial cultures to the sampled afforded a final volume of 200 μL and final test concentration starting with 20 μg/mL, plates were read prior to and after final incubation using either fluorescence at 544ex/590em (M intracellulare, A. fumigatus) using the Polarstar galaxy reader (Biotek Instruments, Vermont). Growth (saline only), solvent and blank (media only) controls were included on each test plate. Drug controls [Ciprofloxacin (ICN Biomedicals, Ohio) for bacteria and Amphotericin B (ICN Biomedicals, Ohio) for fungi] were included in each assay. Percent growth was calculated and plotted versus test concentration to afford IC50 (sample concentration that affords 50% inhibition or growth of the organism). The minimum inhibitory concentration (MIC) was determined by visually inspecting the plate, and is defined as the lowest test concentration that allows no detectable growth (for Almar Blue assays, no color change from blue to pink).

[2] = test system: Cryptococcus neoformans ATCC 90113; assay: Antifungal susceptibility testing, Cryptococcus neoformans; type: cell-based; conditions: Table 1
Experimental: as §1

[3] = test system: Aspergillus fumigatus ATCC 90906; assay: Antifungal susceptibility testing, Aspergillus fumigatus; type: cell-based; conditions: Table 1; Aspergillus fumigatus
Experimental: as §1

MRSA = assay: Antibacterial susceptibility testing, MRSA; type: cell-based, methicillin resistant Staphylococcus aureus; conditions: Table 1
Experimental: as §1

Compound | Ca IC50 [1] | Ca MFC [1] | Ca MIC [1] | Cn IC50 [2] | Cn MFC [2] | Cn MIC [2] | A fu IC50 [3] | A fu MFC [3] | A fu MIC [3] | MRS IC50 (MRSA) | MRS MFC (MRSA) | MRS MIC (MRSA)
[I-].c1ccc(CCCCC[n+]2cc(Oc3ccccc3)cc3ccccc32)cc1 [XYZ-III-83] | — ((-) = >20 μg/mL) | — ((-) = >20 μg/mL) | — ((-) = >20 μg/mL) | — ((-) = >20 μg/mL) | — ((-) = >20 μg/mL) | — ((-) = >20 μg/mL) | 2.0 µg/mL | — ((-) = >20 μg/mL) | — ((-) = >20 μg/mL) | 15 µg/mL | — ((-) = >20 μg/mL) | 20 µg/mL
COc1ccc(Sc2cc3ccccc3[n+](C)c2)cc1.[I-] [XYZ-III-71] | — ((-) = >20 μg/mL) | — ((-) = >20 μg/mL) | — ((-) = >20 μg/mL) | — ((-) = >20 μg/mL) | — ((-) = >20 μg/mL) | — ((-) = >20 μg/mL) | — ((-) = >20 μg/mL) | — ((-) = >20 μg/mL) | — ((-) = >20 μg/mL) | — ((-) = >20 μg/mL) | — ((-) = >20 μg/mL) | — ((-) = >20 μg/mL)
[I-].[O-][S+](c1ccccc1)c1cc2ccccc2[n+](CCCCCc2ccccc2)c1 (centres unmarked) [XYZ-IV-79] | — ((-) = >20 μg/mL) | — ((-) = >20 μg/mL) | — ((-) = >20 μg/mL) |  | — ((-) = >20 μg/mL) | — ((-) = >20 μg/mL) | — ((-) = >20 μg/mL) | — ((-) = >20 μg/mL) | — ((-) = >20 μg/mL) | 1.5 µg/mL | — ((-) = >20 μg/mL) | 5.0 µg/mL
FC(F)(F)c1ccccc1Sc1cc2ccccc2[n+](CCCCCc2ccccc2)c1.[I-] [XYZ-IV-25] | 0.4 µg/mL | 2.5 µg/mL | 1.3 µg/mL | 0.06 µg/mL | 0.63 µg/mL | 0.16 µg/mL | 0.03 µg/mL | 10 µg/mL | 0.08 µg/mL | 0.05 µg/mL | 2.5 µg/mL | 0.16 µg/mL
[I-].c1ccc(CCCCC[n+]2cc(Sc3ccccc3)cc3ccccc32)cc1 [XYZ-III-54] | 5.5 µg/mL | — ((-) = >20 μg/mL) | 10 µg/mL |  | 10 µg/mL | 5.0 µg/mL | 1.3 µg/mL | — ((-) = >20 μg/mL) |  | 1.0 µg/mL | 10 µg/mL | 2.5 µg/mL
[I-].[O-][S+](c1cc2ccccc2[n+](CCCCCc2ccccc2)c1)c1ccccc1Cl (centres unmarked) [XYZ-V-9] | — ((-) = >20 μg/mL) | — ((-) = >20 μg/mL) | — ((-) = >20 μg/mL) | 10 µg/mL | — ((-) = >20 μg/mL) | 20 µg/mL | — ((-) = >20 μg/mL) | — ((-) = >20 μg/mL) | — ((-) = >20 μg/mL) | 0.75 µg/mL | — ((-) = >20 μg/mL) | 2.5 µg/mL
COc1ccccc1Sc1cc2ccccc2[n+](CCCCCc2ccccc2)c1.[I-] [XYZ-IV-18] | 3.0 µg/mL | — ((-) = >20 μg/mL) | 10 µg/mL | 0.85 µg/mL | 5.0 µg/mL | 2.5 µg/mL | 0.09 µg/mL | 10 µg/mL | 1.3 µg/mL | 0.25 µg/mL | 5.0 µg/mL | 0.63 µg/mL
[I-].[O-][S+](c1cc2ccccc2[n+](CCCCCc2ccccc2)c1)c1ccccc1Br (centres unmarked) [XYZ-IV-98] | — ((-) = >20 μg/mL) | — ((-) = >20 μg/mL) | — ((-) = >20 μg/mL) | 5.5 µg/mL | — ((-) = >20 μg/mL) | 20 µg/mL | 15 µg/mL | — ((-) = >20 μg/mL) | — ((-) = >20 μg/mL) | 0.35 µg/mL | — ((-) = >20 μg/mL) | 1.3 µg/mL
COc1cccc(Sc2cc3ccccc3[n+](CCCCCc3ccccc3)c2)c1.[I-] [XYZ-IV-20] | 7.0 µg/mL | — ((-) = >20 μg/mL) | 20 µg/mL | 1.5 µg/mL | 10 µg/mL | 2.5 µg/mL | 0.55 µg/mL | — ((-) = >20 μg/mL) | 1.3 µg/mL | 0.70 µg/mL | 10 µg/mL | 1.3 µg/mL
COc1cccc([S+]([O-])c2cc3ccccc3[n+](CCCCCc3ccccc3)c2)c1.[I-] (centres unmarked) [XYZ-V-23] | — ((-) = >20 μg/mL) | — ((-) = >20 μg/mL) | — ((-) = >20 μg/mL) |  | — ((-) = >20 μg/mL) | — ((-) = >20 μg/mL) | — ((-) = >20 μg/mL) | — ((-) = >20 μg/mL) | — ((-) = >20 μg/mL) | 2.50 µg/mL | — ((-) = >20 μg/mL) | 10 µg/mL
Fc1ccccc1Sc1cc2ccccc2[n+](CCCCCc2ccccc2)c1.[I-] [XYZ-IV-19] | 2.5 µg/mL | 20 µg/mL | 10 µg/mL | 0.25 µg/mL | 2.5 µg/mL | 0.63 µg/mL | 0.20 µg/mL | — ((-) = >20 μg/mL) | 0.31 µg/mL | 0.40 µg/mL | 5.0 µg/mL | 0.63 µg/mL
COc1ccc([S+]([O-])c2cc3ccccc3[n+](CCCCCc3ccccc3)c2)cc1.[I-] (centres unmarked) [XYZ-V-21] | — ((-) = >20 μg/mL) | — ((-) = >20 μg/mL) | — ((-) = >20 μg/mL) | — ((-) = >20 μg/mL) | — ((-) = >20 μg/mL) | — ((-) = >20 μg/mL) | — ((-) = >20 μg/mL) | — ((-) = >20 μg/mL) | — ((-) = >20 μg/mL) | 7.00 µg/mL | — ((-) = >20 μg/mL) | 20 µg/mL
[I-].[O-][S+](c1cccc(C(F)(F)F)c1)c1cc2ccccc2[n+](CCCCCc2ccccc2)c1 (centres unmarked) [XYZ-IV-87] | — ((-) = >20 μg/mL) | — ((-) = >20 μg/mL) | — ((-) = >20 μg/mL) | 6.5 µg/mL | 20 µg/mL | 20 µg/mL | — ((-) = >20 μg/mL) | — ((-) = >20 μg/mL) | — ((-) = >20 μg/mL) | 0.25 µg/mL | 20 µg/mL | 1.3 µg/mL
[I-].[O-][S+](c1ccc(Br)cc1)c1cc2ccccc2[n+](CCCCCc2ccccc2)c1 (centres unmarked) [XYZ-V-20] | — ((-) = >20 μg/mL) | — ((-) = >20 μg/mL) | — ((-) = >20 μg/mL) | 7.0 µg/mL | — ((-) = >20 μg/mL) | 10 µg/mL | — ((-) = >20 μg/mL) | — ((-) = >20 μg/mL) | — ((-) = >20 μg/mL) | 0.50 µg/mL | — ((-) = >20 μg/mL) | 2.5 µg/mL
COc1ccc(Sc2cc3ccccc3[n+](CCCCCc3ccccc3)c2)cc1.[I-] [XYZ-III-72] | — ((-) = >20 μg/mL) | — ((-) = >20 μg/mL) | — ((-) = >20 μg/mL) | 9.5 µg/mL | — ((-) = >20 μg/mL) | 20 µg/mL | 3.5 µg/mL | — ((-) = >20 μg/mL) | 10 µg/mL | 2.0 µg/mL | 10 µg/mL | 5.0 µg/mL
C[n+]1cc(Sc2ccc(F)cc2)cc2ccccc21.[I-] [XYZ-III-62] | — ((-) = >20 μg/mL) | — ((-) = >20 μg/mL) | — ((-) = >20 μg/mL) | — ((-) = >20 μg/mL) | — ((-) = >20 μg/mL) | — ((-) = >20 μg/mL) | — ((-) = >20 μg/mL) | — ((-) = >20 μg/mL) | — ((-) = >20 μg/mL) | — ((-) = >20 μg/mL) | — ((-) = >20 μg/mL) | — ((-) = >20 μg/mL)
